These results are taken from ChEMBL document CHEMBL3046814, “Induction effects of host plants on insecticide susceptibility and detoxification enzymes of Bemisia tabaci (Hemiptera: Aleyrodidae)” (2011).

Converted amounts (≈) assume the structure as drawn.

Holding throughout (format): functional
For test [1], the system named is Bemisia tabaci. In words: Resistance ratio of LC50 for Bemisia tabaci (sweet potato whitefly) infested poinsettia leaves to LC50 for Bemisia tabaci (sweet potato whitefly) infested cucumber leaves.
Test [2] has as its system Bemisia tabaci. In words: Insecticidal activity against Bemisia tabaci (sweet potato whitefly) infested cabbage leaves assessed as mortality after 48 hr by leaf dip method. Particulars: foliar.
Test [3] has as its system Bemisia tabaci. The test is described as follows: Resistance ratio of LC50 for Bemisia tabaci (sweet potato whitefly) infested poinsettia leaves to LC50 for Bemisia tabaci (sweet potato whitefly) infested tomato leaves.
In test [4] the test system is Bemisia tabaci. The test is described as follows: Insecticidal activity against Bemisia tabaci (sweet potato whitefly) infested tomato leaves assessed as mortality after 48 hr by leaf dip method. The settings on record: foliar.
For test [5], the system named is Bemisia tabaci. In words: Insecticidal activity against Bemisia tabaci (sweet potato whitefly) infested cucumber leaves assessed as mortality after 48 hr by leaf dip method. Particulars: foliar.
Test [6] relates to Bemisia tabaci. The test is described as follows: Insecticidal activity against Bemisia tabaci (sweet potato whitefly) infested cotton leaves assessed as mortality after 48 hr by leaf dip method. Particulars: foliar.
Test [7] deals with Bemisia tabaci. The test is described as follows: Insecticidal activity against Bemisia tabaci (sweet potato whitefly) infested poinsettia leaves assessed as mortality after 48 hr by leaf dip method. Particulars: foliar.
Test [8] relates to Bemisia tabaci. The test is described as follows: Resistance ratio of LC50 for Bemisia tabaci (sweet potato whitefly) infested poinsettia leaves to LC50 for Bemisia tabaci (sweet potato whitefly) infested cabbage leaves.
For test [9], the system named is Bemisia tabaci. In words: Resistance ratio of LC50 for Bemisia tabaci (sweet potato whitefly) infested squash leaves to LC50 for Bemisia tabaci (sweet potato whitefly) infested cabbage leaves.
Test [10] deals with Bemisia tabaci. In words: Resistance ratio of LC50 for Bemisia tabaci (sweet potato whitefly) infested squash leaves to LC50 for Bemisia tabaci (sweet potato whitefly) infested cotton leaves.

As a reminder, the LC50 is the concentration lethal to half of the exposed cells or organisms. As for `C/C(=N\C#N)N(C)Cc1ccc(Cl)nc1` [ACETAMIPRID], the RatioLC50 worked out at 10.34 in test [1] and 14.8 in [3]. For the same compound, the LC50 in test [2] came to 17.7 µg/mL (≈ 79.5 µM); in [4] it was 8.73 µg/mL (≈ 39.2 µM); in [5], 12.4 µg/mL (≈ 55.7 µM); in test [6] it was 66.4 µg/mL (≈ 298 µM); in [7], 129 µg/mL (≈ 579 µM).

`CCCCN(CCCC)SN(C)C(=O)Oc1cccc2c1OC(C)(C)C2` [CARBOSULFAN]: the values for the RatioLC50 in test [8] and in test [3] were 5.36 and 6.36, respectively. For the same compound, the LC50 in [2] is 696 µg/mL (≈ 1830 µM); in [4], 586 µg/mL (≈ 1540 µM); in test [5], 3090 µg/mL (≈ 8110 µM); in test [6], 2880 µg/mL (≈ 7560 µM); in test [7], 3730 µg/mL (≈ 9790 µM).

Consider `CCOP(=S)(OCC)Oc1nc(Cl)c(Cl)cc1Cl` [CHLORPYRIFOS], for which the LC50 was 722 µg/mL (≈ 2060 µM) in [2]; 581 µg/mL (≈ 1660 µM) in test [4]; 924 µg/mL (≈ 2640 µM) in test [5]; 1410 µg/mL (≈ 4030 µM) in test [6]; 2120 µg/mL (≈ 6040 µM) in test [7]. Besides, the RatioLC50 in test [3] is recorded as 3.65.

For `CC[C@H](C)[C@H]1O[C@]2(C=C[C@@H]1C)C[C@@H]1C[C@@H](C/C=C(\C)[C@@H](O[C@H]3C[C@H](OC)[C@@H](O[C@H]4C[C@H](OC)[C@@H](O)[C@H](C)O4)[C@H](C)O3)[C@@H](C)/C=C/C=C3\CO[C@@H]4[C@H](O)C(C)=C[C@@H](C(=O)O1)[C@]34O)O2.CO[C@H]1C[C@H](O[C@H]2[C@H](C)O[C@@H](O[C@@H]3/C(C)=C/C[C@@H]4C[C@@H](C[C@]5(C=C[C@H](C)[C@@H](C(C)C)O5)O4)OC(=O)[C@@H]4C=C(C)[C@@H](O)[C@H]5OC/C(=C\C=C\[C@@H]3C)[C@]54O)C[C@@H]2OC)O[C@@H](C)[C@@H]1O` [ABAMECTIN], the LC50 worked out at 0.3 µg/mL in [2]; 0.4 µg/mL in test [4]; 0.5 µg/mL in [5]; 0.7 µg/mL in test [6]; 0.74 µg/mL in test [7].

Regarding `Cc1c(COC(=O)[C@@H]2[C@H](/C=C(\Cl)C(F)(F)F)C2(C)C)cccc1-c1ccccc1` [BIFENTHRIN], the RatioLC50 in test [9] was found to be 7.5; in test [10] it was 7.5; in test [8], 3.19; in test [3], 4.02. Also, the 50% lethal concentration (LC50) in test [2] was 145 µg/mL (≈ 343 µM); in test [4], 115 µg/mL (≈ 272 µM); in test [5], 462 µg/mL (≈ 1090 µM); in [6] it was 228 µg/mL (≈ 539 µM); in test [7], 278 µg/mL (≈ 657 µM).

In the case of `N#Cc1nn(-c2c(Cl)cc(C(F)(F)F)cc2Cl)c(N)c1[S+]([O-])C(F)(F)F` (centres undefined) [FIPRONIL], the LC50 in [2] was 3.82 µg/mL (≈ 8.74 µM); in test [4] it was 5.96 µg/mL (≈ 13.6 µM); in test [5], 8.79 µg/mL (≈ 20.1 µM); in test [6] it was 3.51 µg/mL (≈ 8.03 µM); in test [7], 9.13 µg/mL (≈ 20.9 µM).
